Data as given in publication PMC4281105 (Journal of medicinal chemistry, 2014).
Like-named read-outs stand apart in the source and are kept apart here. Marks after values point to notes of the source that are not given here.

Columns and labels:
RSV = assay: viral titer; type: cell-based, human respiratory syncytial virus; conditions: for log reduction at 10 µM: human respiratory syncytial virus, read-out: viral titer reduction at 10 µM
hRSV strain Long = assay: hRSV CPE assay; type: cell-based, human respiratory syncytial virus
[1] = human respiratory syncytial virus, HEp-2, read-out: RSV CPE potency ± standard deviation EC50, HEp-2 cells, hRSV strain Long, 10-point dose response

| SMILES | log reduction at 10 µM (RSV) | EC50 (hRSV strain Long; [1]) | also measured |
| --- | --- | --- | --- |
| COCCCNC(=O)c1ccc(Cn2c(=O)c3ccccc3n(Cc3ccc(C(F)(F)F)cc3)c2=O)cc1 [Compound 16, 4-((2,4-Dioxo-1-(4-(trifluoromethyl)benzyl)-1,2-dihydroquinazolin-3(4H)-yl)methyl)-N-(3-methoxypropyl)benzamide] | 2.7 | 1300 ± 100 nM | – |
| Cc1ccc(Cn2c(=O)n(Cc3ccc(C(=O)Nc4nccs4)cc3)c(=O)c3ccccc32)cc1 [Compound 41, 4-((1-(4-Methylbenzyl)-2,4-dioxo-1,2-dihydroquinazolin-3(4H)-yl)methyl)-N-(thiazol-2-yl)benzamide] | – | > 50000 nM | – |
| COCCCNC(=O)c1ccc(Cn2c(=O)c3ccccc3n(Cc3ccc([N+](=O)[O-])cc3)c2=O)cc1 [Compound 15, N-(3-Methoxypropyl)-4-((1-(4-nitrobenzyl)-2,4-dioxo-1,2-dihydroquinazolin-3(4H)-yl)methyl)benzamide] | 5.6 | 500 ± 50 nM | viral titer reduction at 10 µM (RSV; compound at 10 µM): 5.6 ^f log; EC50 (hRSV strain Long; human respiratory syncytial virus, RSV CPE, as given in abstract): 300 to 500 nM |
| COCCCNC(=O)c1ccc(Cn2c(=O)c3ccccc3n(Cc3cccnc3)c2=O)cc1 [Compound 23, 4-((2,4-Dioxo-1-(pyridin-3-ylmethyl)-1,2-dihydroquinazolin-3(4H)-yl)methyl)-N-(3-methoxypropyl)benzamide] | 0.9 | > 50000 nM | – |
| Cc1ccc(Cn2c(=O)n(Cc3ccc(C(=O)Nc4ccncc4)cc3)c(=O)c3ccccc32)cc1 [Compound 42, 4-((1-(4-Methylbenzyl)-2,4-dioxo-1,2-dihydroquinazolin-3(4H)-yl)methyl)-N-(pyridin-4-yl)benzamide] | 3.5 | 1000 ± 40 nM | – |
| Cc1ccc(Cn2c(=O)n(Cc3ccc(C(=O)NCc4ccccc4)cc3)c(=O)c3ccccc32)cc1 [Compound 39, N-Benzyl-4-((1-(4-methylbenzyl)-2,4-dioxo-1,2-dihydroquinazolin-3(4H)-yl)methyl)benzamide] | – | > 50000 nM | – |
| Cc1ccc(Cn2c(=O)n(Cc3ccc(C(=O)NC4CCCCC4)cc3)c(=O)c3ccccc32)cc1 [Compound 37, N-Cyclohexyl-4-((1-(4-methylbenzyl)-2,4-dioxo-1,2-dihydroquinazolin-3(4H)-yl)methyl)benzamide] | – | > 50000 nM | – |
| COCCCNC(=O)c1ccc(Cn2c(=O)c3ccccc3n(Cc3ccc4nonc4c3)c2=O)cc1 [Compound 20, 4-((1-(Benzo[c][1,2,5]oxadiazol-5-ylmethyl)-2,4-dioxo-1,2-dihydroquinazolin-3(4H)-yl)methyl)-N-(3-methoxypropyl)benzamide] | 2.1 | 4900 ± 700 nM | – |
| COCCCNC(=O)c1ccc(Cn2c(=O)c3ccccc3n(Cc3ccccc3Br)c2=O)cc1 [Compound 8, 4-((1-(2-Bromobenzyl)-2,4-dioxo-1,2-dihydroquinazolin-3(4H)-yl)methyl)-N-(3-methoxypropyl)benzamide] | – | > 50000 nM | – |
| Cc1ccc(Cn2c(=O)n(Cc3ccc(C(=O)NCCCOC(C)C)cc3)c(=O)c3ccccc32)cc1 [Compound 25, N-(3-Isopropoxypropyl)-4-((1-(4-methylbenzyl)-2,4-dioxo-1,2-dihydroquinazolin-3(4H)-yl)methyl)benzamide] | – | 2000 ± 200 nM | – |
| Cc1ccc(Cn2c(=O)n(Cc3ccc(C(=O)Nc4ccccc4)cc3)c(=O)c3ccccc32)cc1 [Compound 38, 4-((1-(4-Methylbenzyl)-2,4-dioxo-1,2-dihydroquinazolin-3(4H)-yl)methyl)-N-phenylbenzamide] | – | > 50000 nM | – |
| CCOCCCNC(=O)c1ccc(Cn2c(=O)c3ccccc3n(Cc3ccc(C)cc3)c2=O)cc1 [Compound 24, N-(3-Ethoxypropyl)-4-((1-(4-methylbenzyl)-2,4-dioxo-1,2-dihydroquinazolin-3(4H)-yl)methyl)benzamide] | – | 1900 ± 200 nM | – |
| Cc1ccc(Cn2c(=O)n(Cc3ccc(C(=O)NCCCN(C)C)cc3)c(=O)c3ccccc32)cc1 [Compound 26, N-(3-(Dimethylamino)propyl)-4-((1-(4-methylbenzyl)-2,4-dioxo-1,2-dihydroquinazolin-3(4H)-yl)methyl)benzamide] | – | 9500 ± 400 nM | – |
| COCCCNC(=O)c1ccc(Cn2c(=O)c3ccccc3n(Cc3cc(C)on3)c2=O)cc1 [Compound 21, N-(3-Methoxypropyl)-4-((1-((5-methylisoxazol-3-yl)methyl)-2,4-dioxo-1,2 dihydroquinazolin-3(4H)-yl)methyl)benzamide] | – | > 50000 nM | – |
| COCCCNC(=O)c1ccc(Cn2c(=O)c3ccccc3n(Cc3ccc(Br)cc3)c2=O)cc1 [Compound 10, 4-((1-(4-Bromobenzyl)-2,4-dioxo-1,2-dihydroquinazolin-3(4H)-yl)methyl)-N-(3-methoxypropyl)benzamide] | 4.1 | 900 ± 200 nM | – |
| O=C(NCC1COC1)c1ccc(Cn2c(=O)c3ccccc3n(Cc3ccc([N+](=O)[O-])cc3)c2=O)cc1 [Compound 43, 4-((1-(4-Nitrobenzyl)-2,4-dioxo-1,2-dihydroquinazolin-3(4H)-yl)-methyl)-N-(oxetan-3-ylmethyl)benzamide] | > 6.2 | 1300 ± 50 nM | increase in capacity to reduce viral titer over hit 2 (RSV; 10 µM): ≥ 2 log |
| COCCCNC(=O)c1ccc(Cn2c(Cc3cccc(C(C)C)c3)nc3ccccc3c2=O)cc1 [Compound 51, 4-((2-(3-Isopropylbenzyl)-4-oxoquinazolin-3(4H)-yl)methyl)-N-(3-methoxypropyl) benzamide] | – | – | EC50 (hRSV strain Long; read-out: RSV CPE potency ± standard deviation EC50, HEp-2 cells, hRSV strain Long, 10-point dose response): > 50000 nM |

| SMILES | log reduction at 10 µM (RSV) | EC50 (hRSV strain Long; [1]) | also measured |
| --- | --- | --- | --- |
| COCCCNC(=O)c1ccc(Cn2c(=O)c3ccccc3n(Cc3ccc(C#N)cc3)c2=O)cc1 [Compound 17, 4-((1-(4-Cyanobenzyl)-2,4-dioxo-1,2-dihydroquinazolin-3(4H)-yl)methyl)-N-(3-methoxypropyl)benzamide] | 4.2 | 1300 ± 200 nM | – |
| Cc1ccc(Cn2c(=O)n(Cc3ccc(C(=O)NC(C)(C)C)cc3)c(=O)c3ccccc32)cc1 [Compound 36, N-(tert-Butyl)-4-((1-(4-methylbenzyl)-2,4-dioxo-1,2-dihydroquinazolin-3(4H)-yl)methyl)benzamide] | 5.5 | 700 ± 30 nM | – |
| CC(C)(C)c1ccc(Cn2c(=O)n(Cc3ccc(C(=O)NCC4COC4)cc3)c(=O)c3ccccc32)cc1 [Compound 47, 4-((1-(4-tert-Butylbenzyl)-2,4-dioxo-1,2-dihydroquinazolin-3(4H)-yl)methyl)-N-(oxetan-3-ylmethyl)benzamide] | 3.4 | 1600 ± 80 nM | – |
| COCCCNC(=O)c1ccc(Cn2c(=O)c3ccccc3n(Cc3ccccn3)c2=O)cc1 [Compound 22, 4-((2,4-Dioxo-1-(pyridin-2-ylmethyl)-1,2-dihydroquinazolin-3(4H)-yl)methyl)-N-(3-methoxypropyl)benzamide] | 0.1 | > 50000 nM | – |
| COCCCNC(=O)c1ccc(Cn2c(=O)c3ccccc3n(Cc3ccc(F)cc3)c2=O)cc1 [Compound 12, 4-((1-(4-Fluorobenzyl)-2,4-dioxo-1,2-dihydroquinazolin-3(4H)-yl)-methyl)-N-(3-methoxypropyl)benzamide] | – | 5100 ± 400 nM | – |
| CC(C)c1ccc(Cn2c(=O)n(Cc3ccc(C(=O)NCc4ccco4)cc3)c(=O)c3ccccc32)cc1 [Compound 48, N-(Furan-2-ylmethyl)-4-((1-(4-isopropylbenzyl)-2,4-dioxo-1,2-dihydroquinazolin-3(4H)-yl)methyl)benzamide] | 2.8 | 1200 ± 100 nM | – |
| CNC(=O)c1ccc(Cn2c(=O)c3ccccc3n(Cc3ccc(C)cc3)c2=O)cc1 [Compound 34, N-Methyl-4-((1-(4-methylbenzyl)-2,4-dioxo-1,2-dihydroquinazolin-3(4H)-yl)methyl)benzamide] | – | 2200 ± 900 nM | – |
| COc1cc(NC(=O)c2ccc(Cn3c(=O)c4ccccc4n(Cc4ccc(C(C)C)cc4)c3=O)cc2)ccn1 [Compound 50, 4-((1-(4-Isopropylbenzyl)-2,4-dioxo-1,2-dihydroquinazolin-3(4H)-yl)methyl)-N-(2-methoxypyridin-4-yl)benzamide] | – | 500 ± 60 nM | – |
| COCCCNC(=O)c1ccc(Cn2c(Cc3ccc(C(C)C)cc3)nc3ccccc3c2=O)cc1 [Compound 52, 4-((2-(4-Isopropylbenzyl)-4-oxoquinazolin-3(4H)-yl)methyl)-N-(3-methoxypropyl)benzamide] | – | > 50000 nM | – |
| Cc1ccc(Cn2c(=O)n(Cc3ccc(C(=O)N4CCCC4)cc3)c(=O)c3ccccc32)cc1 [Compound 32, 1-(4-Methylbenzyl)-3-(4-(pyrrolidine-1-carbonyl)benzyl)-quinazoline-2,4(1H,3H)-dione] | – | > 50000 nM | – |
| Cc1ccc(Cn2c(=O)n(Cc3ccc(C(=O)N4CCCCC4)cc3)c(=O)c3ccccc32)cc1 [Compound 33, 1-(4-Methylbenzyl)-3-(4-(piperidine-1-carbonyl)benzyl)-quinazoline-2,4(1H,3H)-dione] | – | > 50000 nM | – |
| Cc1ccc(Cn2c(=O)n(Cc3ccc(C(=O)N4CCOCC4)cc3)c(=O)c3ccccc32)cc1 [Compound 31, 1-(4-Methylbenzyl)-3-(4-(morpholine-4-carbonyl)benzyl)-quinazoline-2,4(1H,3H)-dione] | – | > 50000 nM | – |
| COCCCNC(=O)c1ccc(Cn2c(=O)c3ccccc3n(Cc3cccc(Br)c3)c2=O)cc1 [Compound 9, 4-((1-(3-Bromobenzyl)-2,4-dioxo-1,2-dihydroquinazolin-3(4H)-yl)methyl)-N-(3-methoxypropyl)benzamide] | – | 2200 ± 100 nM | – |
| COCCNC(=O)c1ccc(Cn2c(=O)c3ccccc3n(Cc3ccc(C)cc3)c2=O)cc1 [Compound 28, N-(2-Methoxyethyl)-4-((1-(4-methylbenzyl)-2,4-dioxo-1,2-dihydroquinazolin-3(4H)-yl)methyl)benzamide] | – | 2200 ± 1400 nM | – |
| Cc1ccc(Cn2c(=O)n(Cc3ccc(C(=O)NCc4ccco4)cc3)c(=O)c3ccccc32)cc1 [Compound 40, N-(Furan-2-ylmethyl)-4-((1-(4-methylbenzyl)-2,4-dioxo-1,2-dihydroquinazolin-3(4H)-yl)methyl)benzamide] | – | > 50000 nM | – |
| Cc1ccc(Cn2c(=O)n(Cc3ccc(C(=O)N(C)C)cc3)c(=O)c3ccccc32)cc1 [Compound 35, N,N-Dimethyl-4-((1-(4-methylbenzyl)-2,4-dioxo-1,2-dihydroquinazolin-3(4H)-yl)methyl)benzamide] | – | > 50000 nM | – |
